The results in this text go back to US11633392B2 (priority 2016, dated 2023).

SMILES strings stand for the structures. Where a name gives a salt, the structure may show the parent alone. Read-outs that look alike come from different tables or passages of the source. Marks after values point to notes of the source that are not given here. Some results are limits rather than exact numbers.

In one experiment the target is T1, human opioid μ receptor (Homo sapiens, UniProt P35372).
T1 construct: host or cells: CHO cells
In words: Opioid receptor function test (Lance Ultra cAMP Kit), μ receptor. The format is cell-based. The note with it: for EC50: read-out: μ receptor EC50 value. On the procedure:
(§1) Opioid Receptor Function Test
(§2) The functional activities of the compounds provided by the present invention on the μ, δ, and κ opioid receptors were investigated.
(§3) The test was performed by using Lance Ultra cAMP Kit (PerkinElmer) according to a method predetermined for the kit. In the evaluation of the agonistic activity, CHO cells expressing each of the human opioid receptors (δ, μ, and κ, accession numbers and catalog numbers are mentioned below) and 10 μM of each test compound were reacted for 30 minutes in an assay buffer (1× HBSS, […], pH 7.4, […] (isobutylmethylxanthine), 7.5% BSA) in the presence of forskolin. Subsequently, the cAMP detection reagent included in the kit was added, and 1 hour afterward, time-resolved fluorescence measurement was performed by using the EnVision plate reader (PerkinElmer). The test compounds and the control drugs (δ: SNC80, μ: DAMGO, κ: U-69593) were evaluated in a concentration range of 10^−12 to 10^−5 M, a dose-response curve of each test compound was obtained from the fluorescence values at 665 nm, and EC50 value and the Emax value were calculated. The Emax value was calculated as a ratio of the maximum reaction of the test compound to the maximum reaction of each control drug, which is taken as 100%.
(§4) • δ: Catalog No. CT4607, Accession No. NM_000911.2 • μ: Catalog No. CT4605, Accession No. NM_000914 • κ: Catalog No. CT4606, Accession No. NM_000912 (ChanTest Corporation)

For another experiment, the target named is T2, human opioid κ receptor (Homo sapiens, UniProt P41145).
T2 construct: host or cells: CHO cells
The experiment is described as follows: Opioid receptor function test (Lance Ultra cAMP Kit), κ receptor. In kind it is cell-based. Particulars: for κ receptor reaction rate at the maximum concentration (reference value, marked *): maximum reaction not reached, maximum concentration 10 μM, U-69593 = 100%; for EC50: CHO cells expressing human κ receptor, cAMP, in the presence of forskolin. As for the experimental part:
as §1, §2, §3, §4

For a further experiment, the target named is T3, human opioid δ receptor (Homo sapiens, UniProt P41143).
T3 construct: host or cells: CHO cells
The experiment is described as follows: Opioid receptor function test (Lance Ultra cAMP Kit), δ receptor. The format is cell-based. The note with it: for EC50: CHO cells expressing human δ receptor, cAMP, in the presence of forskolin; for Emax / δ receptor Emax: ratio to maximum reaction of control drug SNC80 taken as 100%. On the procedure: as §1, §2, §3, §4

Experiment [1] concerns olfactory bulbectomized (OBX) rat. In words: Hyperemotional reaction inhibition test using olfactory bulbectomized (OBX) rat. In kind it is in vivo. The note with it: 10 mg/kg s.c. once a day, on the day 14 of the administration period. The source says:
Hyperemotional Reaction Inhibition Test Using Olfactory Bulbectomized (OBX) Rat
According to the method of Saitoh et al. (Saitoh A, Yamada M, Yamada M, Takahashi K, Yamaguchi K, Murasawa H, Nakatani A, Tatsumi Y, Hirose N, and Kamei J: Antidepressant-like effects of the delta-opioid receptor agonist SNC80 ((+)-4-[(alphaR)-alpha-[(2S,5R)-2,5-dimethyl-4-(2-propenyl)-1-piperazinyl]-(3-methoxyphenyl)methyl]-N,N-diethylbenzamide) in an olfactory bulbectomized rat model, Brain Res., 2008, 1208:160-169), OBX rats were prepared by extracting the rat olfactory bulbs, and then breeding the rats in an isolated circumstance. Hyperemotional reaction was evaluated on the day 14 after the surgical operation and before the division into groups, and 2 hours after the administration on the days 1, 4, 7, 10, and 14 of the administration period according to the hyperemotional reaction evaluation criteria prepared by Gomita et al. (Gomita et al., Behavioral pharmacological and electroencephalographical studies of 7-chloro-1-methyl-5-phenyl-1H-1,5-benzodiazepine-2,4-(3H,5H:)-dione (Clobazam), Folia Pharmacologica Japonica, 82, 267 (1983)). The drug was subcutaneously administered once a day continuously over 14 days. As a positive control drug, fluoxetine, which is a selective serotonin reuptake inhibitor (SSRI), was used. As the solvent, a 1% cyclodextrin (CD) was used.

Where [2] appears, read: CHO cells expressing human μ receptor, cAMP, in the presence of forskolin.
Setting [3] is: ratio to maximum reaction of control drug DAMGO taken as 100%.
[4] abbreviates: ratio to maximum reaction of control drug U-69593 taken as 100%.

T1 sequence (P35372 whole entry): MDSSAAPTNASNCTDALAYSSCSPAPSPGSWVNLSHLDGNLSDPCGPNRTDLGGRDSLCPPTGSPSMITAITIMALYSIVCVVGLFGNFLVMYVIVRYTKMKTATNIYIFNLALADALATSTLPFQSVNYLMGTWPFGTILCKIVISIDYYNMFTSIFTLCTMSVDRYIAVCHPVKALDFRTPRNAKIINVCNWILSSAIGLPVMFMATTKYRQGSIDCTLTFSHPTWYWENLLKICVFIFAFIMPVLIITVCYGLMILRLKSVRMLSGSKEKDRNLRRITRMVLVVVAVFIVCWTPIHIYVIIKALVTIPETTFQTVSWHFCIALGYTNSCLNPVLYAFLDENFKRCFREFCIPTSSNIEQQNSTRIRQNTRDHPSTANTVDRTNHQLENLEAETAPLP
T2 sequence (P41145 whole entry): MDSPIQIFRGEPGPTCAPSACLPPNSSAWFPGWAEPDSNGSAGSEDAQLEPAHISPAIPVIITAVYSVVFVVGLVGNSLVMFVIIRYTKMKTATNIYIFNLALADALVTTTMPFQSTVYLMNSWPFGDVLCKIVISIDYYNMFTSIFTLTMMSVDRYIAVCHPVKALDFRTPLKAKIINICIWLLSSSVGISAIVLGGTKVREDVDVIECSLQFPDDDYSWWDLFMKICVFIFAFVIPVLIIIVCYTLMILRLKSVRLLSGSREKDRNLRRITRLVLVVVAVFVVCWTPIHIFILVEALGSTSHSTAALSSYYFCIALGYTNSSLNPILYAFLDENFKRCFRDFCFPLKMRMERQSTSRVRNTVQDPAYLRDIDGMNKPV
T3 sequence (P41143 whole entry): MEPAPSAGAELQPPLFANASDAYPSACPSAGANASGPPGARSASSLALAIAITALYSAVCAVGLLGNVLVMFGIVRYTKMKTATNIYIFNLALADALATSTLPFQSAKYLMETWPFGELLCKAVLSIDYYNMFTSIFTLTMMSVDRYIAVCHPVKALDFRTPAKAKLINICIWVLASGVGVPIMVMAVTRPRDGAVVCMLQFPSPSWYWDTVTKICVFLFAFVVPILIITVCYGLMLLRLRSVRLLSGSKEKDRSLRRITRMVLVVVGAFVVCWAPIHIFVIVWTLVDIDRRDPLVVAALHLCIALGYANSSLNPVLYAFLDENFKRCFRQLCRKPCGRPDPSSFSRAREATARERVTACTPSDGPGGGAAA

As to `O=C(c1cc(=O)cc[nH]1)N1C[C@H]2C[C@@]34CC[C@@H]1[C@@H]2[C@@]31CCN(CC2CC2)[C@@H]4Cc2ccc(O)cc21` [Example 14, 2-((1S,3aR,5aS,6R,11bR,11cS)-14-(cyclopropylmethyl)-10-hydroxy-2,3,3a,4,5,6,7,11c-octahydro-1H-6,11b-(epiminoethano)-1,5a-methanonaphtho[1,2-e]indole-3-carbonyl)pyridin-4(1H)-one], the EC50 (as a rule, the concentration giving half of the maximal effect) on human opioid μ receptor (setting [2]) was above 1 nM; at human opioid δ receptor it was below 3 nM. The Emax (as a rule, the maximal effect, on the per cent scale that the assay sets) was determined as 8.1% at human opioid μ receptor (setting [3]) and 95% on human opioid δ receptor. At human opioid κ receptor, the “κ receptor reaction rate at the maximum concentration (reference value, marked *)” value (“κ receptor reaction rate” below) is listed as −6.7* %.

Take `CCn1cc(C(=O)N2C[C@H]3C[C@@]45CC[C@@H]2[C@@H]3[C@@]42CCN(CC3CC3)[C@@H]5Cc3ccc(O)cc32)ccc1=O` [Example 28, 5-((1S,3aR,5aS,6R,11bR,11cS)-14-(cyclopropylmethyl)-10-hydroxy-2,3,3a,4,5,6,7,11c-octahydro-1H-6,11b-(epiminoethano)-1,5a-methanonaphtho[1,2-e]indole-3-carbonyl)-1-ethylpyridin-2(1H)-one]: the EC50 at human opioid μ receptor (setting [2]) is above 1 nM; at human opioid κ receptor it was below 1 nM; at human opioid δ receptor, below 3 nM. The values for the Emax on human opioid μ receptor (setting [3]), on human opioid κ receptor (setting [4]) and on human opioid δ receptor were 16%, 18% and 92%, respectively.

With `O=C(c1cc[nH]c(=O)c1)N1C[C@H]2C[C@@]34CC[C@@H]1[C@@H]2[C@@]31CCN(CC2CC2)[C@@H]4Cc2ccc(O)cc21` [Example 11, 4-((1S,3aR,5aS,6R,11bR,11cS)-14-(cyclopropylmethyl)-10-hydroxy-2,3,3a,4,5,6,7,11c-octahydro-1H-6,11b-(epiminoethano)-1,5a-methanonaphtho[1,2-e]indole-3-carbonyl)pyridin-2(1H)-one], the EC50 on human opioid μ receptor (setting [2]) was above 1 nM; at human opioid δ receptor it was below 3 nM. In addition, the Emax stood at 11% at human opioid μ receptor (setting [3]) and 76% on human opioid δ receptor. The “κ receptor reaction rate” value on human opioid κ receptor is given as −2.5* %.

`Cc1ccc(C(=O)N2C[C@H]3C[C@@]45CC[C@@H]2[C@@H]3[C@@]42CCN(CC3CC3)[C@@H]5Cc3ccc(O)cc32)c(=O)[nH]1` [Example 32, 3-((1S,3aR,5aS,6R,11bR,11cS)-14-(cyclopropylmethyl)-10-hydroxy-2,3,3a,4,5,6,7,11c-octahydro-1H-6,11b-(epiminoethano)-1,5a-methanonaphtho[1,2-e]indole-3-carbonyl)-6-methylpyridin-2(1H)-one hydrochloride]: the “μ receptor Emax” value at human opioid μ receptor (setting [3]) was 8.6%. Further, at human opioid κ receptor (setting [4]), the “κ receptor Emax” value was found to be 21%. Besides, at human opioid δ receptor, the “δ receptor Emax” value was found to be 70%.

Take `O=C(c1ccc(=O)[nH]c1)N1C[C@H]2C[C@@]34CC[C@@H]1[C@@H]2[C@@]31CCN(CC2CC2)[C@@H]4Cc2ccc(O)cc21` [Example 5, 5-((1S,3aR,5aS,6R,11bR,11cS)-14-(cyclopropylmethyl)-10-hydroxy-2,3,3a,4,5,6,7,11c-octahydro-1H-6,11b-(epiminoethano)-1,5a-methanonaphtho[1,2-e]indole-3-carbonyl)pyridin-2(1H)-one]: the EC50 is above 1 nM at human opioid μ receptor (setting [2]), below 1 nM at human opioid κ receptor and below 3 nM at human opioid δ receptor. Also, the Emax at human opioid μ receptor (setting [3]) came to 9.7%; at human opioid κ receptor (setting [4]), 20%; on human opioid δ receptor, 81%.

For `O=C(c1cc(=O)cco1)N1C[C@H]2C[C@@]34CC[C@@H]1[C@@H]2[C@@]31CCN(CC2CC2)[C@@H]4Cc2ccc(O)cc21` [Example 19, 2-((1S,3aR,5aS,6R,11bR,11cS)-14-(cyclopropylmethyl)-10-hydroxy-2,3,3a,4,5,6,7,11c-octahydro-1H-6,11b-(epiminoethano)-1,5a-methanonaphtho[1,2-e]indole-3-carbonyl)-4H-pyran-4-one], the EC50 was above 1 nM on human opioid μ receptor (setting [2]) and below 3 nM on human opioid δ receptor. Moreover, the Emax on human opioid μ receptor (setting [3]) is 19%; at human opioid δ receptor, 91%. Besides, on human opioid κ receptor, the “κ receptor reaction rate” value is reported as 0.6* %.

Turning to `Cn1cccc(C(=O)N2C[C@H]3C[C@@]45CC[C@@H]2[C@@H]3[C@@]42CCN(CC3CC3)[C@@H]5Cc3ccc(O)cc32)c1=O` [Example 31, 3-((1S,3aR,5aS,6R,11bR,11cS)-14-(cyclopropylmethyl)-10-hydroxy-2,3,3a,4,5,6,7,11c-octahydro-1H-6,11b-(epiminoethano)-1,5a-methanonaphtho[1,2-e]indole-3-carbonyl)-1-methylpyridin-2(1H)-one hydrochloride], on human opioid μ receptor, the “μ receptor Emax” value turned out to be 7.7% and the EC50 is above 10 nM. The “δ receptor Emax” value on human opioid δ receptor came out at 97%.

In the case of `O=C(c1ccc[n+]([O-])c1)N1C[C@H]2C[C@@]34CC[C@@H]1[C@@H]2[C@@]31CCN(CC2CC2)[C@@H]4Cc2ccc(O)cc21` [Example 4, 3-((1S,3aR,5aS,6R,11bR,11cS)-14-(cyclopropylmethyl)-10-hydroxy-2,3,3a,4,5,6,7,11c-octahydro-1H-6,11b-(epiminoethano)-1,5a-methanonaphtho[1,2-e]indole-3-carbonyl)pyridine 1-oxide], the “μ receptor reaction rate at the maximum concentration (reference value, marked *)” value on human opioid μ receptor (maximum reaction not reached, maximum concentration 10 μM, DAMGO = 100%) is 5.5* %. Also, the figures for the EC50 on human opioid κ receptor and on human opioid δ receptor were above 10 nM and below 3 nM, respectively. The values for the Emax on human opioid κ receptor (setting [4]) and at human opioid δ receptor were 27% and 86%, respectively.

Take `Cn1cccc(C(=O)N2C[C@H]3C[C@@]45CC[C@@H]2[C@@H]3[C@@]42CCN(CC3CC3)[C@@H]5Cc3ccc(O)cc32)c1=O` [Example 6, 3-((1S,3aR,5aS,6R,11bR,11cS)-14-(cyclopropylmethyl)-10-hydroxy-2,3,3a,4,5,6,7,11c-octahydro-1H-6,11b-(epiminoethano)-1,5a-methanonaphtho[1,2-e]indole-3-carbonyl)-1-methylpyridin-2(1H)-one]: the EC50 at human opioid μ receptor (setting [2]) was above 10 nM; at human opioid δ receptor it was below 3 nM. The Emax at human opioid μ receptor (setting [3]) came out at 7.7%; at human opioid δ receptor, 97%. Besides, the “κ receptor reaction rate” value on human opioid κ receptor is 3.2* %.

With `Cc1ccc(C(=O)N2C[C@H]3C[C@@]45CC[C@@H]2[C@@H]3[C@@]42CCN(CC3CC3)[C@@H]5Cc3ccc(O)cc32)c(=O)[nH]1` [Example 8, 3-((1S,3aR,5aS,6R,11bR,11cS)-14-(cyclopropylmethyl)-10-hydroxy-2,3,3a,4,5,6,7,11c-octahydro-1H-6,11b-(epiminoethano)-1,5a-methanonaphtho[1,2-e]indole-3-carbonyl)-6-methylpyridin-2(1H)-one], the EC50 was above 1 nM at human opioid μ receptor (setting [2]), below 1 nM at human opioid κ receptor and below 3 nM at human opioid δ receptor. Also, the Emax at human opioid μ receptor (setting [3]) was found to be 8.6%; at human opioid κ receptor (setting [4]), 21%; on human opioid δ receptor it was 70%.

Consider `CNCCC(Oc1ccc(C(F)(F)F)cc1)c1ccccc1` (centres unmarked) [fluoxetine, reference compound], for which the “hyperemotional reactions of the OBX rats compared with the solvent administration group” value in experiment [1] was “significantly reduced”.
